Laboratory results taken from the NIST ThermoML archive (doi:10.1021/je400885z).
Several values for one entry are separate records, joined by “and”; a condition that tells them apart may be missing. Equal entries are not always repeated. ± gives the expanded uncertainty stated by the source.

Conditions: 248.15 K; Liquid

SMILES | vapor or sublimation pressure
O=C=S [carbonyl sulfide] | 282.15 ± 3.6 kPa and 287.13 ± 3.7 kPa
S=C=S [carbon disulfide] | 4.5 ± 1 kPa
O=C=O [carbon dioxide] | 1672.6 ± 21 kPa

Same assay, conditions: 273.15 K; Liquid

SMILES | vapor or sublimation pressure
O=C=S [carbonyl sulfide] | 638.23 ± 8 kPa and 651.42 ± 8.2 kPa
S=C=S [carbon disulfide] | 17.3 ± 1 kPa
O=C=O [carbon dioxide] | 3485.1 ± 43 kPa

Same assay, conditions: 333.15 K; Liquid

SMILES | vapor or sublimation pressure [kPa]
CCCCO [butan-1-ol] | 8.39 ± 1
CCCCC [pentane] | 215.21 ± 2.8

Same assay, conditions: 373.15 K; Liquid

SMILES | vapor or sublimation pressure
C=CCO [2-propenol] | 113.1 ± 1.7 kPa and 109.94 ± 1.7 kPa and 109.95 ± 1.7 kPa
CCOC(C)=O [ethyl acetate] | 202.9 ± 2.6 kPa
CC(C)(C)O [2-methylpropan-2-ol] | 192.46 ± 2.5 kPa and 191.18 ± 2.5 kPa
COCC(C)O (stereo unspecified) [1-methoxy-2-propanol] | 50.45 ± 1.2 kPa and 48.26 ± 1.2 kPa and 48.55 ± 1.2 kPa
O=Cc1ccco1 [2-furaldehyde] | 14.62 ± 1 kPa and 14.65 ± 1 kPa
NCCO [2-aminoethan-1-ol] | 6.16 ± 1 kPa and 6.17 ± 1 kPa and 6.64 ± 1 kPa
CCCCOC(C)=O [butyl ethanoate] | 44.71 ± 1.2 kPa and 42.55 ± 1.1 kPa

Same assay, conditions: 393.15 K; Liquid

SMILES | vapor or sublimation pressure [kPa]
CCCCO [butan-1-ol] | 110.26 ± 1.6
CCCCC [pentane] | 917.75 ± 11

Same assay, conditions: 423.15 K; Liquid

SMILES | vapor or sublimation pressure
C=CCO [2-propenol] | 520.67 ± 6.5 kPa and 518.64 ± 6.5 kPa and 518.11 ± 6.5 kPa
CCOC(C)=O [ethyl acetate] | 687.53 ± 8.6 kPa
CC(C)(C)O [2-methylpropan-2-ol] | 818.16 ± 10 kPa and 816.37 ± 10 kPa
COCC(C)O (stereo unspecified) [1-methoxy-2-propanol] | 232.13 ± 3 kPa [middle of 4 runs]
O=Cc1ccco1 [2-furaldehyde] | 77.51 ± 1.4 kPa and 76.13 ± 1.4 kPa
NCCO [2-aminoethan-1-ol] | 50.62 ± 1.2 kPa and 52.71 ± 1.2 kPa and 51.97 ± 1.2 kPa
CCCCOC(C)=O [butyl ethanoate] | 195.63 ± 2.5 kPa and 188.81 ± 2.4 kPa and 191.33 ± 2.5 kPa

Same assay, conditions: 473.15 K; Liquid

SMILES | vapor or sublimation pressure [kPa]
COCC(C)O (stereo unspecified) [1-methoxy-2-propanol] | 739.81 ± 9.4
CCCCOC(C)=O [butyl ethanoate] | 583.23 ± 7.3
